From patent US8361998B2, “Compounds and their use as IKACh blockers” (AstraZeneca AB, priority 2010, dated 2013)

The molecules below were run against T1, human cardiac ion channel proteins hKir3.1/Kir3.4 (Homo sapiens, UniProt P48544+P48549) (assay: Atomic Absorption Screening (AAS) Rb efflux assay of hKir3.1/Kir3.4 block, carbachol/high K+ stimulated, 10-pt or 7-pt CR). Conditions: 7-pt CR (0.037 to 27 μmol/L), AAS Rb efflux, CHO-K1 cells expressing hKir3.1/Kir3.4; mean of >3 replicates; read-out: IKACh IC50 7-pt CR, AAS.
T1 construct: expressed in transfected cells
T1 sequence (P48549 1-501): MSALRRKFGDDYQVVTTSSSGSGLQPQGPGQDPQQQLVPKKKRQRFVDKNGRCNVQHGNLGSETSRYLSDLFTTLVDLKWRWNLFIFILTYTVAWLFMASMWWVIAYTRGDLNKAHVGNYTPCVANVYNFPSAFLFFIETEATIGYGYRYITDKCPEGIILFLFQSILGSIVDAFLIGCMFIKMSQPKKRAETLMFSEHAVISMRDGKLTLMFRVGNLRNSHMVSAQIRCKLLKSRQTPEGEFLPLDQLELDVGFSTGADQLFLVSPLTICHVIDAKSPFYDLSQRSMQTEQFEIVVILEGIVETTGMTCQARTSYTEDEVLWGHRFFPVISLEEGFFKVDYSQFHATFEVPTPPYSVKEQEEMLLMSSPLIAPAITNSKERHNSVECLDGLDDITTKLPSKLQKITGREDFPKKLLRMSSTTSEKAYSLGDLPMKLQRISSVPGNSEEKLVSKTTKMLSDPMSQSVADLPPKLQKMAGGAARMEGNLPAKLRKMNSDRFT
T1 sequence (P48544 1-419): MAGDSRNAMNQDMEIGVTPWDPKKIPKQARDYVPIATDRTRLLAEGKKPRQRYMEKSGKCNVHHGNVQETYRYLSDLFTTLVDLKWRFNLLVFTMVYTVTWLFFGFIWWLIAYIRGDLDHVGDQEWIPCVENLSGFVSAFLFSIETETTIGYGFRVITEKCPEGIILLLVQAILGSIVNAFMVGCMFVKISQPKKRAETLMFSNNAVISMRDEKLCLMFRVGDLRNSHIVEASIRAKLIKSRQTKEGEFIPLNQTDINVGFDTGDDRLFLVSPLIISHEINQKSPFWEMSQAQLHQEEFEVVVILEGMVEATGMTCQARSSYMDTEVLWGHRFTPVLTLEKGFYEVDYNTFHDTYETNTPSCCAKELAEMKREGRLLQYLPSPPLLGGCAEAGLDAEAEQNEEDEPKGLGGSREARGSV
Type: cell-based
Summary of the method: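 CHO-K1 cells stably co-expressing human Kir3.1/Kir3.4 were Rb-loaded for 3 h at 37° C, preincubated with compound 5 min at RT, then stimulated 10 min with 10 μM carbachol plus 20 mM KCl (final). Supernatant Rb was measured by atomic absorption. Compounds ran at 0.003–67 μmol/L (10-pt) or 0.037–27 μmol/L (7-pt), threefold dilutions; IC50s are means of >4 or >3 replicates respectively.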

IC50	SMILES
0.9 µM	CC(C)[C@@H](CN1CCCC1)N(C)C(=O)c1ccc(Cl)cc1F [Example 16.53, (S)-4-Chloro-2-fluoro-N-methyl-N-(3-methyl-1-(pyrrolidin-1-yl)butan-2-yl)benzamide]
8.4 µM	CC(C)[C@@H](CN1CC[C@H](O)C1)N(C)C(=O)c1cc(F)cc(C(F)(F)F)c1 [Example 16.44, 3-Fluoro-N-[(1S)-1-{[(3S)-3-hydroxypyrrolidin-1-yl]methyl}-2-methylpropyl]-N-methyl-5-(trifluoromethyl)benzamide]
11 µM	CC(C)[C@@H](CN1CCCC1)N(C)C(=O)c1ccccc1F [Example 16.18, (S)-2-Fluoro-N-methyl-N-(3-methyl-1-(pyrrolidin-1-yl)butan-2-yl)benzamide]

Same assay, conditions: 10-pt CR (0.003 to 67 μmol/L), AAS Rb efflux, CHO-K1 cells expressing hKir3.1/Kir3.4; mean of >4 replicates; read-out: IKACh IC50 10-pt CR, AAS

IC50	SMILES
6.3 µM	CO[C@H](C)[C@@H](CN1CC(O)C1)N(C)C(=O)c1ccc(Cl)cc1 [Example 30, 4-Chloro-N-((2R,3R)-1-(3-hydroxyazetidin-1-yl)-3-methoxybutan-2-yl)-N-methylbenzamide]
0.33 µM	CN(C(=O)c1ccc(C#N)cc1F)[C@H](CN1CC(O)C1)C1CCCCC1 [Example 36.4, 4-Cyano-N-[(1S)-1-cyclohexyl-2-(3-hydroxyazetidin-1-yl)ethyl]-2-fluoro-N-methylbenzamide]
0.25 µM	CN(C(=O)c1cccc(C(F)F)c1)[C@H](CN1CC(O)C1)C1CCC1 [Example 39.15, (S)—N-(1-Cyclobutyl-2-(3-hydroxyazetidin-1-yl)ethyl)-3-(difluoromethyl)-N-methylbenzamide]
0.41 µM	CN(C(=O)c1ccc(F)c(F)c1)[C@H](CN1CC(O)C1)C1CCC1 [Example 39.3, (S)—N-(1-Cyclobutyl-2-(3-hydroxyazetidin-1-yl)ethyl)-3,4-difluoro-N-methylbenzamide]
15 µM	COc1ccc(C(=O)N(C)C(CN2CC(O)C2)C2CCCC2)cc1 (single isomer, unassigned) [32.2, isomer 2]
0.81 µM	Cc1ccc(F)c(C(=O)N(C)[C@H](CN2CC(O)C2)C2CCC2)c1 [Example 39.10, (S)—N-(1-Cyclobutyl-2-(3-hydroxyazetidin-1-yl)ethyl)-2-fluoro-N,5-dimethylbenzamide]
0.47 µM	COc1cc(Cl)ccc1C(=O)N(C)[C@@H](CC(C)C)CN1CC(O)C1 [Example 38.7, 4-Chloro-N-[(2S)-1-(3-hydroxyazetidin-1-yl)-4-methylpentan-2-yl]-2-methoxy-N-methylbenzamide]
12 µM	CC(C)[C@@H](CN1CC[C@@H](O)C1)N(C)C(=O)c1ccc(F)c(Cl)c1 [Example 17.6, 3-Chloro-4-fluoro-N—((S)-1-((R)-3-hydroxypyrrolidin-1-yl)-3-methylbutan-2-yl)-N-methylbenzamide]
19 µM	COCC1CN(C[C@H](C(C)C)N(C)C(=O)c2ccc(F)c(F)c2)C1 [Example 28, (S)-3,4-Difluoro-N-(1-(3-(methoxymethyl)azetidin-1-yl)-3-methylbutan-2-yl)-N-methylbenzamide]
7 µM	Cc1cc(C(=O)N(C)[C@H](CN2CCC(C#N)CC2)C(C)C)ccc1F [Example 26, (S)—N-(1-(4-Cyanopiperidin-1-yl)-3-methylbutan-2-yl)-4-fluoro-N,3-dimethylbenzamide]

SMILES	IC50
CCN(C(=O)c1ccc(Cl)cc1)[C@H](CN1CCCC1)C(C)C [Example 15.3, (S)-4-Chloro-N-ethyl-N-(3-methyl-1-(pyrrolidin-1-yl)butan-2-yl)benzamide]	7.4 µM
CC[C@H](C)[C@@H](CN1CCCC1)N(C)C(=O)c1ccc(Cl)cc1Cl [Example 2.6, 2,4-Dichloro-N-methyl-N-((2S,3S)-3-methyl-1-(pyrrolidin-1-yl)pentan-2-yl)benzamide]	2 µM
CN(C(=O)c1ccc(Br)cc1)[C@H](CN1CCCC1)C1CC1 [Example 3.15, (S)-4-Bromo-N-(1-cyclopropyl-2-(pyrrolidin-1-yl)ethyl)-N-methylbenzamide]	3.8 µM

Same assay, conditions: printed as IC50 >67 μM in the 10-pt CR assay or IC50 >27 μM in the 7-pt CR assay; assay format per compound not stated; read-out: IC50

IC50	SMILES
> 27 µM	Cc1cc(C(=O)N(C)[C@H](CN2C[C@@H](O)[C@H](O)C2)C(C)C)ccc1F [N-((S)-1-((3R,4R)-3,4-Dihydroxypyrrolidin-1-yl)-3-methylbutan-2-yl)-4-fluoro-N,3-dimethylbenzamide]
> 27 µM	COc1ccc(C(=O)N(C)[C@H](CN2CCC2)C(C)C)cc1F [(S)-N-(1-(Azetidin-1-yl)-3-methylbutan-2-yl)-3-fluoro-4-methoxy-N-methylbenzamide]

SMILES	IC50
CC(C)[C@@H](CN1CCCC(F)(F)C1)N(C)C(=O)c1ccc(F)c(F)c1 [(S)-N-(1-(3,3-Difluoropiperidin-1-yl)-3-methylbutan-2-yl)-3,4-difluoro-N-methylbenzamide]	> 27 µM
